Source: patent US20210346356A1, “INHIBITING UBIQUITIN SPECIFIC PEPTIDASE 9X” (FORMA THERAPEUTICS, INC., priority 2018, published 2021)

Columns and labels:
A375 melanoma cells = assay: Allogeneic PBMC-mediated cytotoxicity of A375 melanoma cells, caspase 3/7 (Example 4); format: cell-based, human; conditions: with SEB-stimulated PBMCs, FIG. 9A/9B
Experimental: A375 cells incubated alone, in the absence of SEB-stimulated PMBCs, with either compound had no significant effect on cellular apoptosis.

[1] = system: mixed lymphocyte reaction; assay: mixed lymphocyte reaction (MLR) assay (Example 2); format: cell-based; conditions: FIG. 7
Experimental: (§1) Given the reported role of ITCH and Cbl-b in T cell tolerance and as a negative regulator of T-cell receptor (TCR)/[…] 28 (CD28) signaling, the effects of USP9X inhibition were evaluated in a CD3/CD28 activation assay and in a mixed lymphocyte reaction (MLR) assay.

[2] = system: SEB-exhausted human PBMCs; assay: cells; format: cell-based
[3] = system: Human total T cells (CD3+); assay: Human T cell activation with CD3/CD28 activator, IFNγ ELISA (Example 6); format: cell-based; conditions: 4 days, two donors, FIGS. 11-12
Experimental: Human total T cells (CD3+) were isolated using EasySep™ immunomagnetic beads (Stemcell Technologies) from healthy human PBMCs (Hemacare). Cells were stained with Cell Trace Violet proliferation dye (Invitrogen), and treated with agent or DMSO. Cells were also stimulated with a CD3/CD28 activator (Stemcell Technologies). After 4 days of incubation, cells and supernatant were collected; cells were washed with staining buffer (PBS with 2% FBS) twice and centrifuged (350 g for 5 min). Cells were stained with LIVE/DEAD stain (Invitrogen), FITC-CD4 (BD Pharmingen) and CD8 (BD Pharmingen) in 100 μL volume for 30 mins at 4° C. Cells were washed twice as described above, resuspended in 100 μL staining buffer and analyzed using a BD Canto II (BD Biosciences). Data was analyzed using FlowJo V10 (FlowJo LLC). Secreted IFNγ was measured by ELISA (Dakewe Biotech Co., Ltd). All data were analyzed by Graphpad Prism 6.0 (GraphPad Software).

[4] = system: CD3/CD28 Activated T Cells; assay: anti-CD3/CD28 T cell activation assay (Example 2); format: cell-based; conditions: FIG. 6
Experimental: as §1

SEB-restimulated PBMCs = assay: IFNγ production in SEB-restimulated PBMCs (Example 1); format: cell-based, human; conditions: FIG. 5 (Inhibitor 3 at 10 μM)
Excerpt: The effect of USP9X inhibition on PBMCs that have been re-stimulated with SEB was also investigated. […] This is consistent with the notion that the SEB-restimulated T cells were in a state of exhaustion or rendered tolerant to SEB.

female BALB/c mice = assay: SEB-induced peripheral tolerance in mice, spleen and splenocyte readouts (Example 7); format: in vivo
Experimental: Peripheral tolerance/inactivation was induced in female BALB/c mice by a single intraperitoneal injection of 30 μg SEB. Mice were treated with a positive control (anti-CTLA4) or various doses of USP9X Inhibitor 3. Spleens and splenocytes were harvested at 24 hr after the last dose. […] No changes in IL-2 and IFNγ levels were detected in the supernatants from SEB-restimulated splenocytes.

[5] = highest dose group, 24 hr after last dose

| Structure (SMILES) | A375 apoptosis (caspase 3/7 activity) (A375 melanoma cells) | IFNγ secretion in the MLR assay [1] | EC50 ([1]; Lymphocyte, read-out: EC50 for IFNγ secretion in the MLR assay) | IFNγ production compared to DMSO or negative control compound 5 [2] | EC50 ([2]; Homo sapiens, PBMC, 48 h, read-out: EC50 value for IFNγ secretion) | IFNγ production [3] | IFNγ production [4] | IFNγ production following SEB-restimulation (SEB-restimulated PBMCs) | Spleen protein level of Cbl-b, reduction (female BALB/c mice; [5]) | Spleen protein level of ITCH, reduction (female BALB/c mice; [5]) | Spleen protein levels of Cbl-b and ITCH (female BALB/c mice; lower doses) | IL-2 and IFNγ levels in supernatants from SEB-restimulated splenocytes (female BALB/c mice; splenocytes harvested 24 hr after last dose) |
| --- | --- | --- | --- | --- | --- | --- | --- | --- | --- | --- | --- | --- |
| CNC[C@H](C(=O)N1CC2=C(C1)CN(S(=O)(=O)c1ccc3c(c1)OCCO3)C2)c1cccc(Cl)c1 [USP9X Inhibitor 3, (2R)-2-(3-chlorophenyl)-1-[5-(2,3-dihydro-1,4-Benzodioxine-6-sulfonyl)-1H,2H,3H,4H,5H,6H-pyrrolo[3,4-c]pyrrol-2-yl]-3-(methylamino)propan-1-one] | enhanced A375 apoptosis in a concentration-dependent manner | promoted IFNγ secretion | 100 to 1000 nM | significantly increase IFNγ production | 100 to 1000 nM | increased | the most profound effect | restored IFNγ production to varying degrees depending on the donor | 81% | 64% | no notable changes | No changes |
| O=S(=O)(c1ccc(-c2ncco2)cc1)N1Cc2cnc(C(O)c3cccc(N4CCNCC4)c3)cc2C1 (stereo not shown) [USP9X Inhibitor 4, [2-[4-(1,3-oxazol-2-yl)benzenesulfonyl]-1H,2H,3H-pyrrolo[3,4-c]pyridin-6-yl][3-(piperazin-1-yl)phenyl] methanol] | – | – | – | – | – | increased | – | – | – | – | – | – |
